Laboratory results reported in patent publication US7763650B2, “Pharmaceutical compound and method” (Medipharma S.A., priority 2006, dated 2010).

Assays:
[1] = tested on: Maximal electroshock seizures; test: Maximal electroshock seizure (MES) anticonvulsant test; type: in vivo; details: mice; for Relative Power in relation to 2-propylpentanoic acid (Valproic acid): MES test; for MES test: Effective doses 50: ip, at time of peak effect, micromols per Kg of mouse weight
Description: In Vivo Experiments: The pharmacological tests were performed according to standard procedures provided by the Antiepileptic Drug Development (ADD) Program of the National Institute of Neurological and Communicative Disorders and Stroke (NINCDS). Anticonvulsant tests: Maximal electroshock seizures were elicited in mice by delivering a 60 Hz/50 mA electrical stimulus for 0.2 sec. via ear clip electrodes. A drop of saline solution applied on each ear before placing the electrodes ensures adequate electrical contact. In these conditions, maximal seizures are produced in virtually all normal mice. The maximal seizure typically consists of a short period of tonic flexion followed by a longer period of tonic extension of the hind limbs and a final clonic episode. Blockade of the hind limbs tonic extensor component due to the drug treatment is taken as the end point. […] Determination of the Time of Peak Effect (TPE): […] The percentages of protection or neurotoxicity are recorded and plotted against time and the TPEs are determined by visual inspection of the graphs. Estimation of the ED50s: Groups of 8 animals per dose are injected via ip. […] The percentages of protection at each dose (converted to probit) were plotted against log-doses.

mice = test: RotoRod minimal neurotoxicity test; type: in vivo; details: for Protection: Rotorot test on Effective Doses 50: mouse, in vivo
Description: In Vivo Experiments: The pharmacological tests were performed according to standard procedures provided by the Antiepileptic Drug Development (ADD) Program of the National Institute of Neurological and Communicative Disorders and Stroke (NINCDS). Neurotoxicity tests: The RotoRod test is used exclusively in mice to assess minimal neurotoxicity. A normal mouse can maintain its equilibrium on a rotating rod (6 rpm) for long periods of time. Neurological deficit is indicated by failure to keep walking on this rotating rod in each of three trials of 1 min each. Estimation of the neurotoxic effects: Groups of 8 animals per dose were injected and tested with the RotoRod test. The percentages of animals showing minimal neurotoxicity were recorded and the higher dose producing neurotoxic effects is reported.

Row | Compound | Relative Power in relation to 2-propylpentanoic acid (Valproic acid) [1] | MES test: Effective doses 50 [1] [µmol/kg] | Rotorod: animals showing neurotoxicity / animals tested (mice; mice, dose not given) | Protection: Rotorot test on Effective Doses 50 (mice) | Protective index (Rotorod neurotoxic dose / MES ED50) (mice; ratio of Rotorod dose to MES ED50, mice)
1 | CCCC(CCC)C(=O)O [Valproic acid, valproic acid, reference compound] | 1 | 1010 |  |  | 
2 | CCCC(CCC)C(=O)O[C@H]1[C@H](OC(=O)C(CCC)CCC)[C@@H](OC(=O)C(CCC)CCC)[C@H](OC(=O)C(CCC)CCC)[C@@H](OC(=O)C(CCC)CCC)[C@H]1OC(=O)C(CCC)CCC [Example 1, (±)1,2,3,4,5,6-hexa-O-(2-propylpentanoyl)-myo-inositol] |  | 100 | 0/6 |  | 
3 | CCCC(CCC)C(=O)OC1C(O)C(O)C(OC(=O)C(CCC)CCC)C(OC(=O)C(CCC)CCC)C1OC(=O)C(CCC)CCC (racemic) [Example 4, (±)-3,4,5,6-tetra-O-(2-propylpentanoyl)-myo-inositol] | 9 | 100 |  | 6 | 
4 | (±)-5,6-Di-O-(2-propylpentanoyl)-1,2:3,4-di-O-cyclohexyl-O-myo-inositol [Example 2] | 35 | 80 |  |  | 12
5 | CCCC(CCC)C(=O)OC1C(O)C(O)C(O)C(O)C1OC(=O)C(CCC)CCC (racemic) [Example 5, (±)-3,4-Di-O-(2-propylpentanoyl)-myo-inositol] | 35 | 35 |  | 12 | 
